Test results as given in PubChem BioAssay (NCI).
Values joined by “and” are separate entries in the source; they are usually repeats but may differ in a detail not shown here. Identical values can stand only once.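 Cultured in 96-well plates, cells were exposed to test compound for 48 hours across five concentrations. At the GI50, growth is halved. TGI: total growth inhibition.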

What was measured:
Assay in all cases: inhibition of tumour cell growth, NCI panel, 48 h
M14 melanoma = system: M14 melanoma
MDA-MB-435 = system: MDA-MB-435
OVCAR-8 ovarian = system: OVCAR-8 ovarian
SNB-19 CNS = system: SNB-19 CNS
SR leukemia = system: SR leukemia
SNB-75 CNS = system: SNB-75 CNS
MALME-3M melanoma = system: MALME-3M melanoma
TK-10 renal = system: TK-10 renal
MOLT-4 leukemia = system: MOLT-4 leukemia
OVCAR-3 ovarian = system: OVCAR-3 ovarian
IGROV1 ovarian = system: IGROV1 ovarian
UACC-62 melanoma = system: UACC-62 melanoma
HCT-116 colon = system: HCT-116 colon
T-47D breast = system: T-47D breast
SK-MEL-2 melanoma = system: SK-MEL-2 melanoma
K-562 leukemia = system: K-562 leukemia
RPMI-8226 leukemia = system: RPMI-8226 leukemia
786-0 renal = system: 786-0 renal
A549 NSCLC = system: A549 NSCLC
SN12C renal = system: SN12C renal
CCRF-CEM leukemia = system: CCRF-CEM leukemia
SK-MEL-5 melanoma = system: SK-MEL-5 melanoma
A498 renal = system: A498 renal
SW-620 colon = system: SW-620 colon
DU-145 prostate = system: DU-145 prostate
NCI-H226 lung = system: NCI-H226 lung
U251 CNS = system: U251 CNS
KM12 colon = system: KM12 colon
PC-3 prostate = system: PC-3 prostate
HT29 colon = system: HT29 colon
EKVX NSCLC = system: EKVX NSCLC
NCI-H522 lung = system: NCI-H522 lung
NCI-H23 lung = system: NCI-H23 lung
MDA-MB-231 breast = system: MDA-MB-231 breast
OVCAR-4 ovarian = system: OVCAR-4 ovarian
HCC-2998 colon = system: HCC-2998 colon
LOX IMVI melanoma = system: LOX IMVI melanoma
COLO 205 colon = system: COLO 205 colon
OVCAR-5 ovarian = system: OVCAR-5 ovarian
NCI-H460 lung = system: NCI-H460 lung
MCF7 breast = system: MCF7 breast
CAKI-1 renal = system: CAKI-1 renal
SK-OV-3 ovarian = system: SK-OV-3 ovarian
SK-MEL-28 melanoma = system: SK-MEL-28 melanoma
ACHN renal = system: ACHN renal
NCI/ADR-RES ovarian = system: NCI/ADR-RES ovarian
SF-295 CNS = system: SF-295 CNS
HOP-62 NSCLC = system: HOP-62 NSCLC
BT-549 breast = system: BT-549 breast
UO-31 renal = system: UO-31 renal
HS 578T breast = system: HS 578T breast
HL-60(TB) leukemia = system: HL-60(TB) leukemia
HCT-15 colon = system: HCT-15 colon
SF-268 CNS = system: SF-268 CNS

Cc1ccnc(Nc2ccc([N+](=O)[O-])c(NCCN3CCOCC3)n2)c1
TGI (M14 melanoma): 45200 nM
GI50 (MDA-MB-435): 2.33 nM
TGI (MDA-MB-435): 6.8 nM
GI50 (OVCAR-8 ovarian): 33.4 nM and 20.1 nM
TGI (OVCAR-8 ovarian): > 100000 nM
GI50 (SNB-19 CNS): 31.2 nM
GI50 (SR leukemia): 3.76 nM
TGI (SR leukemia): 63500 nM
GI50 (SNB-75 CNS): 2.43 nM
TGI (SNB-75 CNS): 20100 nM
GI50 (MALME-3M melanoma): 6.17 nM
GI50 (TK-10 renal): 18500 nM
TGI (TK-10 renal): 62000 nM
GI50 (MOLT-4 leukemia): 30.4 nM and 35.6 nM
TGI (MOLT-4 leukemia): > 100000 nM
GI50 (OVCAR-3 ovarian): 2.66 nM
TGI (OVCAR-3 ovarian): 7.8 nM
GI50 (IGROV1 ovarian): 38.9 nM and 57.9 nM
TGI (IGROV1 ovarian): 42400 nM
GI50 (UACC-62 melanoma): 3.82 nM
TGI (UACC-62 melanoma): 18300 nM
GI50 (HCT-116 colon): 6.63 nM
GI50 (T-47D breast): 26100 nM
TGI (T-47D breast): 74900 nM
GI50 (SK-MEL-2 melanoma): 5.66 nM and 30.4 nM
TGI (SK-MEL-2 melanoma): 27200 nM
GI50 (K-562 leukemia): 3.68 nM
TGI (K-562 leukemia): > 100000 nM
GI50 (RPMI-8226 leukemia): 21.2 nM and 26.9 nM
TGI (RPMI-8226 leukemia): 24500 nM
GI50 (786-0 renal): 8.21 nM and 14.9 nM
TGI (786-0 renal): 23700 nM
GI50 (A549 NSCLC): 14.1 nM
TGI (A549 NSCLC): > 100000 nM
GI50 (SN12C renal): 42.5 nM and 48 nM
TGI (SN12C renal): > 100000 nM
GI50 (CCRF-CEM leukemia): 18.2 nM and 26.5 nM
TGI (CCRF-CEM leukemia): 20600 nM
GI50 (SK-MEL-5 melanoma): 5.64 nM
TGI (SK-MEL-5 melanoma): 206 nM and 315 nM
GI50 (A498 renal): 3.25 nM
TGI (A498 renal): 220 nM
GI50 (SW-620 colon): 4.97 nM
TGI (SW-620 colon): > 100000 nM
GI50 (DU-145 prostate): 6.93 nM and 28.4 nM
GI50 (NCI-H226 lung): 59.4 nM
GI50 (U251 CNS): 5.24 nM
TGI (U251 CNS): > 100000 nM
GI50 (KM12 colon): 4.64 nM
GI50 (PC-3 prostate): 6.03 nM
TGI (PC-3 prostate): 39500 nM
GI50 (HT29 colon): 4.38 nM
TGI (HT29 colon): 18300 nM
GI50 (EKVX NSCLC): 29.2 nM
GI50 (NCI-H522 lung): 2.09 nM
TGI (NCI-H522 lung): 6.86 nM
GI50 (NCI-H23 lung): 35.2 nM and 15.6 nM
TGI (NCI-H23 lung): 40800 nM
GI50 (MDA-MB-231 breast): 21.3 nM and 37.9 nM
TGI (MDA-MB-231 breast): 48500 nM
GI50 (OVCAR-4 ovarian): 15.1 nM
GI50 (HCC-2998 colon): 18.7 nM and 17.1 nM
TGI (HCC-2998 colon): 14700 nM
GI50 (LOX IMVI melanoma): 5.2 nM
TGI (LOX IMVI melanoma): 27900 nM
GI50 (COLO 205 colon): 5.02 nM
TGI (COLO 205 colon): 41.7 nM and 33.3 nM
GI50 (OVCAR-5 ovarian): 74 nM
GI50 (NCI-H460 lung): 4.31 nM
TGI (NCI-H460 lung): > 100000 nM
GI50 (MCF7 breast): 3.34 nM
TGI (MCF7 breast): 20500 nM
GI50 (CAKI-1 renal): 5.2 nM
TGI (CAKI-1 renal): > 100000 nM
GI50 (SK-OV-3 ovarian): 8.04 nM
TGI (SK-OV-3 ovarian): 64700 nM
TGI (SK-MEL-28 melanoma): 30300 nM
GI50 (ACHN renal): 7.44 nM
TGI (ACHN renal): 40800 nM
GI50 (NCI/ADR-RES ovarian): 4.29 nM
GI50 (SF-295 CNS): 3.55 nM
TGI (SF-295 CNS): 29600 nM
GI50 (HOP-62 NSCLC): 6.57 nM
TGI (HOP-62 NSCLC): 71800 nM
GI50 (BT-549 breast): 20.8 nM and 19.1 nM
TGI (BT-549 breast): 23400 nM
GI50 (UO-31 renal): 46.1 nM
TGI (UO-31 renal): 30700 nM
GI50 (HS 578T breast): 27.7 nM
TGI (HS 578T breast): 22700 nM
GI50 (HL-60(TB) leukemia): 14.4 nM
TGI (HL-60(TB) leukemia): 46.4 nM
GI50 (HCT-15 colon): 6.1 nM
TGI (HCT-15 colon): 31500 nM
GI50 (SF-268 CNS): 9.26 nM and 59 nM
TGI (SF-268 CNS): 42400 nM
